Some test systems named below: ACHN; HL-60; K562; KM12; LOX IMVI; Malme-3M; OVCAR-3; OVCAR-4; SK-MEL-28; SN12C; SNB-19; SW-620; UACC-257; UACC-62; UO-31; MDA-MB-231; SR; T47D; Hs-578T.
Common to all, as to test: NCI tumour cell line growth inhibition, 48 h

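Briefly, cells in 96-well plates were exposed to five compound concentrations for 48 h, and endpoints were estimated by linear interpolation. GI50 is the concentration that inhibits growth by half.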 Activity calls are given as the source filed them. No stated cut-off is given here; in the data, active = GI50 up to about 1.1 µM and inactive = higher.

For `CCN(CC)c1ccc(C(=O)c2ccccc2C(=O)O)c(O)c1`, the GI50 with ACHN, with HL-60, in the assay on K562, with KM12, in the assay on LOX IMVI and in the assay with Malme-3M was > 100 µM (inactive) each time. In addition, the GI50 in the assay on OVCAR-3, in the assay on OVCAR-4, in the assay with SK-MEL-28, with SN12C, in the assay on SNB-19 and in the assay on SW-620 was > 100 µM (inactive) in each case. For the same compound, the GI50 in the assay with UACC-257, in the assay with UACC-62 and with UO-31 was > 100 µM (inactive) in each case.
`N#CI1OC(=O)c2ccccc21`: the GI50 is > 100 µM (inactive) in the assay on ACHN; 59.6 µM (inactive) in the assay with HL-60; 39.8 µM (inactive) in the assay on K562; > 100 µM (inactive) in the assay with KM12; > 100 µM (inactive) with LOX IMVI; > 100 µM (inactive) in the assay on MDA-MB-231. Also, the GI50 was > 100 µM (inactive) in the assay with OVCAR-3; > 100 µM (inactive) in the assay on OVCAR-4; 92 µM (inactive) in the assay with SK-MEL-28; > 100 µM (inactive) in the assay with SN12C; 23.6 µM (inactive) in the assay with SR; > 100 µM (inactive) in the assay with SW-620. For the same compound, the GI50 in the assay with T47D, in the assay with UACC-257, in the assay on UACC-62 and in the assay with UO-31 was > 100 µM (inactive) each time.
Turning to `COc1ccc(-c2nc(Nc3ccccc3)sc2Cc2sc(Nc3ccccc3)nc2-c2ccc(OC)cc2)cc1`, the GI50 with ACHN was 45.1 µM (inactive); in the assay with HL-60, 0.787 µM (active); with K562, 5.18 µM (inactive); in the assay on KM12 it was 8.59 µM (inactive); in the assay with LOX IMVI, 15.5 µM (inactive); in the assay with MDA-MB-231, > 100 µM (inactive). The GI50 with Malme-3M was > 100 µM (inactive); in the assay on OVCAR-3, 17.1 µM (inactive); in the assay on OVCAR-4, 24.3 µM (inactive); in the assay with SK-MEL-28, > 100 µM (inactive); with SN12C, 27 µM (inactive); in the assay on SNB-19, > 100 µM (inactive). For the same compound, the GI50 with SR is 26 µM (inactive); with SW-620, 67.5 µM (inactive); with T47D it was 38.5 µM (inactive); in the assay with UACC-257 it was > 100 µM (inactive); in the assay with UACC-62 it was > 100 µM (inactive); in the assay on UO-31 it was > 100 µM (inactive).
As to `CC(C)OC(=O)C1=C2c3ncccc3C(=O)N2[C@@H](Cl)[C@H](Cl)[C@H]1Cl`, the GI50 in the assay on ACHN is > 100 µM (inactive); in the assay with HL-60, 38.2 µM (inactive); with Hs-578T, > 100 µM (inactive); in the assay on K562 it was 30.5 µM (inactive); in the assay on KM12, > 100 µM (inactive); with LOX IMVI, 68.9 µM (inactive). Besides, the GI50 was > 100 µM (inactive) in the assay on MDA-MB-231; 28.8 µM (inactive) in the assay on Malme-3M; > 100 µM (inactive) in the assay on OVCAR-3; > 100 µM (inactive) in the assay with OVCAR-4; > 100 µM (inactive) with SK-MEL-28; 21.8 µM (inactive) in the assay with SN12C. Besides, the GI50 in the assay on SNB-19 is > 100 µM (inactive); in the assay with SR it was 26.5 µM (inactive); in the assay on SW-620, 34.6 µM (inactive); with UACC-257, 34 µM (inactive); with UACC-62 it was > 100 µM (inactive); with UO-31, > 100 µM (inactive).
On to `C=C1CN(Cc2ccccc2)[C@@H]2CCCCC[C@H](C#N)[C@H]12`, for which the GI50 with ACHN is > 100 µM (inactive); in the assay with K562 it was 47.2 µM (inactive); in the assay with KM12, > 100 µM (inactive); with LOX IMVI, 95.9 µM (inactive); in the assay on MDA-MB-231 it was > 100 µM (inactive); with Malme-3M, > 100 µM (inactive). For the same compound, the GI50 in the assay with OVCAR-3 was > 93.1 µM (inactive); with OVCAR-4 it was > 100 µM (inactive); in the assay with SK-MEL-28, > 100 µM (inactive); in the assay on SN12C, > 100 µM (inactive); in the assay with SNB-19 it was > 100 µM (inactive); in the assay on SR, > 47.8 µM (inactive). Besides, the GI50 with SW-620 is > 94.8 µM (inactive); in the assay with T47D, > 100 µM (inactive); with UACC-257 it was > 100 µM (inactive); with UACC-62, > 100 µM (inactive); in the assay on UO-31, > 63.4 µM (inactive).
`O=C(N/N=C/c1ccc(Cl)cc1)c1cc(I)cc(I)c1O`: the GI50 with ACHN, in the assay on HL-60, in the assay on K562, in the assay on KM12, in the assay on LOX IMVI and in the assay on MDA-MB-231 was > 100 µM (inactive) in each case. Besides, the GI50 in the assay on OVCAR-3 was > 100 µM (inactive); in the assay with OVCAR-4, > 100 µM (inactive); in the assay on SK-MEL-28 it was > 100 µM (inactive); with SN12C, > 100 µM (inactive); with SNB-19, > 100 µM (inactive); in the assay with SR it was 76.6 µM (inactive). The GI50 in the assay on SW-620, in the assay with T47D, in the assay with UACC-257 and in the assay on UO-31 was > 100 µM (inactive) in each case.
As to `O=S(=O)(O)c1ccc(O)c2ncc(Cl)cc12`, the GI50 in the assay on ACHN, in the assay on K562, in the assay with KM12, with LOX IMVI, in the assay with MDA-MB-231 and in the assay with OVCAR-3 was > 100 µM (inactive) throughout. Besides, the GI50 in the assay on OVCAR-4, in the assay on SK-MEL-28, in the assay on SN12C, in the assay on SNB-19, in the assay with SR and in the assay with SW-620 was > 100 µM (inactive) throughout. For the same compound, the GI50 in the assay with T47D, in the assay with UACC-257, with UACC-62 and in the assay with UO-31 was > 100 µM (inactive) throughout.
In the case of `O=c1nc2n(cc1/C=C\Br)C1CC(O)C(CO2)O1` (stereo unspecified), the GI50 in the assay on ACHN was > 100 µM (inactive); in the assay with HL-60, 0.792 µM (active); in the assay with K562, 5.16 µM (inactive); in the assay on KM12 it was > 100 µM (inactive); in the assay on LOX IMVI, > 100 µM (inactive); with MDA-MB-231, > 100 µM (inactive). For the same compound, the GI50 in the assay on Malme-3M, in the assay with OVCAR-3, in the assay on OVCAR-4, with SK-MEL-28, in the assay on SN12C and in the assay with SNB-19 was > 100 µM (inactive) in each case. The GI50 with SW-620, in the assay on T47D, with UACC-257, in the assay with UACC-62 and in the assay on UO-31 was > 100 µM (inactive) each time.
Regarding `CC(C)CCn1nc(N)c2nc3ccccc3nc21`, the GI50 is 41.3 µM (inactive) in the assay with ACHN; 41.6 µM (inactive) with HL-60; > 100 µM (inactive) with Hs-578T; 57.1 µM (inactive) in the assay on K562; > 100 µM (inactive) in the assay with KM12; > 100 µM (inactive) in the assay with LOX IMVI. In addition, the GI50 in the assay with Malme-3M, in the assay on OVCAR-3, with OVCAR-4, with SK-MEL-28, in the assay on SN12C and in the assay with SNB-19 was > 100 µM (inactive) in each case. Besides, the GI50 was 15.2 µM (inactive) with SR; 67.6 µM (inactive) in the assay with SW-620; > 100 µM (inactive) with UACC-257; > 100 µM (inactive) with UACC-62; > 100 µM (inactive) with UO-31.
With `CCOC(=O)/C(C#N)=C/Nc1c(C)n(C)n(-c2ccccc2)c1=O`, the GI50 with ACHN, in the assay with HL-60, with K562, in the assay on KM12, in the assay on LOX IMVI and with MDA-MB-231 was > 100 µM (inactive) throughout. Besides, the GI50 with Malme-3M, with OVCAR-3, in the assay on OVCAR-4, with SN12C, in the assay with SR and with SW-620 was > 100 µM (inactive) in each case. Further, the GI50 in the assay with UACC-257, in the assay on UACC-62 and with UO-31 was > 100 µM (inactive) each time.
`[O-][S+](Nc1ccccc1)c1ccccc1Oc1ccccc1` (stereo unspecified): the GI50 is 46 µM (inactive) in the assay with ACHN; 25.5 µM (inactive) in the assay on HL-60; 2.84 µM (inactive) in the assay with Hs-578T; 48.6 µM (inactive) with K562; 18.8 µM (inactive) in the assay with KM12; 19.7 µM (inactive) in the assay on LOX IMVI. Further, the GI50 with MDA-MB-231 is 36.2 µM (inactive); with Malme-3M, 30.5 µM (inactive); in the assay on OVCAR-3, 92.9 µM (inactive); in the assay with SK-MEL-28 it was 33.5 µM (inactive); with SN12C, 86.7 µM (inactive); in the assay on SNB-19, 38.9 µM (inactive). In addition, the GI50 was 7.41 µM (inactive) in the assay with SR, > 100 µM (inactive) with SW-620, 51.2 µM (inactive) in the assay with UACC-257 and 20.9 µM (inactive) with UO-31.
Turning to `Nc1ccc(-c2nc3ccc(F)cc3s2)cc1I`, the GI50 with ACHN is > 100 µM (inactive); in the assay on Hs-578T it was 22.2 µM (inactive); with K562, > 100 µM (inactive); in the assay on KM12 it was > 100 µM (inactive); in the assay with LOX IMVI it was > 100 µM (inactive); with MDA-MB-231 it was > 54.2 µM (inactive). The GI50 in the assay on Malme-3M is > 100 µM (inactive); in the assay with SK-MEL-28, > 100 µM (inactive); in the assay with SN12C it was > 100 µM (inactive); with SNB-19 it was > 61.2 µM (inactive); in the assay on SR it was > 76.2 µM (inactive); in the assay on SW-620, > 100 µM (inactive). Further, the GI50 in the assay on UACC-257 is > 100 µM (inactive); in the assay on UACC-62 it was > 79.6 µM (inactive); with UO-31, > 100 µM (inactive).

For the origin of these results see ChEMBL document CHEMBL1201862, “PubChem BioAssay data set” (2004).
